This passage reports IC50 and inhibition results from PubChem BioAssay AID588680 (Southern Research Specialized Biocontainment Screening …, 2011).

Active and inactive are the calls of the source.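 Rule for the calls: active = inhibition of 30% or more at any tested concentration; inactive = the rest.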

As usually defined, the IC50 is the point on the concentration scale where inhibition reaches its midpoint.

The target of one assay is M1-family alanyl aminopeptidase (PfM1AAP), Plasmodium falciparum 3D7. Put plainly: PfM1AAP enzyme inhibition, dose response, selectivity assay for PfM18AAP inhibitor project, biochemical, QFRET, H-Leu-NHMec substrate (AID 588680). The note with it: recombinant PfM1AAP, H-Leu-NHMec fluorogenic cleavage.
`CN(CCc1ccc(O)c(O)c1)c1ccnc2ccccc12`: the IC50 was 19.7 µM.
On the same count and under the same terms, with `O=S1(=O)c2ccccc2-c2cc(-c3nc(-c4ccc(O)c(O)c4)[nH]c3-c3ccccc3)ccc21` the figure was 39.9 µM.
For the molecule `Cc1ccc(-c2nc(-c3ccc(O)c(O)c3)cs2)cc1`, the IC50 is 37.1 µM.
For `Oc1ccc(CCNc2ccc3ccccc3c2)cc1O`, the IC50 was 34.6 µM.
As to `Oc1ccc(-c2csc(Cc3cc4ccccc4[nH]3)n2)cc1O`, the IC50 was 19.9 µM.
On to `O=c1cc(CN2CCN(Cc3ccccc3)CC2)c2ccc(O)c(O)c2o1`, for which the IC50 is 90.5 µM.
Still for that read-out and setting: with `O=c1ccc2cc(O)c(O)cc2o1` the figure was 48.2 µM.
Take `Cc1c(-c2ccccc2)[nH]c(-c2ccc(O)c(O)c2)[n+]1O`: the 50% inhibitory concentration (IC50) was 54.3 µM.
Still for that read-out and setting: then `CCC(C)c1ccc(N)c(O)c1` (stereo not drawn), with 42.2 µM; and `CN(CCc1ccc(O)c(O)c1)c1ccncc1`, with 45.2 µM.
Turning to `O=C1c2ccc3c4c(ccc(c24)C(=O)N1O)CC3`, the IC50 was 76.7 µM.
For `Oc1ccc(CCN2CCc3ccccc3C2)cc1O`, the IC50 is 77 µM.
As for `Nc1cc(C(=O)c2ccccc2)ccc1O`, the half-inhibitory concentration (IC50) is 40.3 µM.
For the molecule `O=C1OCCN1CCc1nc(-c2ccc(O)c(O)c2)cs1`, the half-inhibitory concentration (IC50) was 37.7 µM.
For the molecule `Oc1ccc(CCNc2cccc3ccccc23)cc1O`, the concentration for half-maximal inhibition (IC50) was 29.9 µM.
Still for that read-out and setting: then `Cc1nc(NCCc2ccc(O)c(O)c2)c2c3c(sc2n1)CCC3`, with 40 µM.
For the molecule `CCOc1cccc(-c2nc(-c3ccc(O)c(O)c3)cs2)c1`, the IC50 was 40 µM.
On to `Oc1ccc(CCNc2cncc3ccccc23)cc1O`, for which the IC50 is 35.7 µM.
`Oc1ccc(CCNC(c2ccccc2)c2ccccc2)cc1O`: the 50% inhibitory concentration (IC50) is 55.1 µM.
Take `CC(C)(C)C(=O)OCc1nc(-c2ccc(O)c(O)c2)cs1`: the concentration for half-maximal inhibition (IC50) was 41.2 µM.
`Oc1ccc(CCNc2c3c(nc4ccccc24)CCCC3)cc1O`: the concentration for half-maximal inhibition (IC50) is 35 µM.

Still in this assay, the particulars now being: recombinant PfM1AAP, H-Leu-NHMec fluorogenic cleavage; at 50 µM (top of the series).
Consider `O=C(O)CCCCNc1c2ccccc2nc2ccccc12`, for which the inhibition result was “inactive”.
`O=C(O)CCCNc1c2ccccc2nc2ccccc12`: the inhibition result was “inactive”.

Staying with this assay, now noted: recombinant PfM1AAP, H-Leu-NHMec fluorogenic cleavage; at 100 µM (top of the series).
Take `CCC(C)C(=O)Nc1ccccc1N` (stereo not drawn): the inhibition entry is “inactive”.
Take `COc1ccc(CCNC2CCN(Cc3ccccc3)CC2)cc1OC`: the inhibition result is “inactive”.
`Cc1c(O)c(=O)ccn1CCNc1c2ccccc2nc2ccccc12`: the inhibition result is “inactive”.
Consider `COc1ccc(CCNc2c3ccccc3nc3ccccc23)cc1`, for which the inhibition result is “inactive”.
As to `COc1ccc(CC(=O)O)cc1OC`, the inhibition entry is “inactive”.
Turning to `NCCNc1c2ccccc2nc2ccccc12`, the inhibition result is “inactive”.
As to `COc1ccc(CNc2c3ccccc3nc3ccccc23)cc1OC`, the inhibition entry is “inactive”.
For the molecule `COc1ccc(CCNC2CCN(C)CC2)cc1OC`, the inhibition result was “inactive”.
`COc1ccc(CCN(C)CCc2ccccc2)cc1OC`: the inhibition result is “inactive”.
`COc1ccc(CCNc2ccc3ccccc3c2)cc1OC`: the inhibition entry is “inactive”.
As to `COc1ccc(CCN2CCN(C)CC2)cc1OC`, the inhibition result is “inactive”.
Same read-out and setting: then `O=C(c1ccco1)N1CCN(Cc2cc(=O)c(O)co2)CC1`, with “inactive”; and `COc1ccc(CCNc2ccnc3ccccc23)cc1OC`, with “inactive”.
In the case of `COc1ccc(CCN(C)c2ccnc3ccccc23)cc1OC`, the inhibition entry was “inactive”.
As to `COc1cccc(CCNc2c3ccccc3nc3ccccc23)c1`, the inhibition result is “inactive”.
Take `Oc1ccc(CCNc2c3ccccc3nc3ccccc23)cc1`: the inhibition result is “inactive”.
Consider `COc1ccc(CCN(C)c2ccncc2)cc1OC`, for which the inhibition result was “inactive”.
Take `Cc1c(OCc2ccccc2)c(=O)ccn1CCNc1c2ccccc2nc2ccccc12`: the inhibition result is “inactive”.
As to `COc1ccc(-c2csc(-c3ccccc3)n2)cc1OC`, the inhibition entry is “inactive”.
On to `CCC(C)C(=O)Nc1ccccc1O` (stereo not drawn), for which the inhibition entry was “inactive”.
`COc1ccc(-c2nc(-c3ccccc3)c(-c3ccccc3)[nH]2)cc1OC`: the inhibition result is “inactive”.
For the molecule `O=c1cc(CO)oc(CN2CCCCC2)c1O`, the inhibition result was “inactive”.
Same read-out and setting: then `COc1ccc(CCNc2c3c(nc4ccccc24)CCCC3)cc1OC`, with “inactive”; and `O=C(c1ccco1)N1CCN(Cc2cc(=O)c(O)c[nH]2)CC1`, with “inactive”.
In the case of `O=c1ccn(CCNc2c3ccccc3nc3ccccc23)cc1OCc1ccccc1`, the inhibition result was “inactive”.
`COc1ccc(-c2csc(-c3ccccc3OC)n2)cc1OC`: the inhibition entry was “inactive”.
Same read-out and setting: with `Oc1ccc(CNc2c3ccccc3nc3ccccc23)cc1O` the entry was “inactive”; with `COc1ccc(CCC(=O)O)cc1OC`, “inactive”.
For the molecule `COc1ccc(CCCNc2c3ccccc3nc3ccccc23)cc1OC`, the inhibition entry was “inactive”.
Turning to `COc1cccc(-c2nc(-c3ccc(OC)c(OC)c3)cs2)c1`, the inhibition result was “inactive”.
`COc1ccc(CCN2CCc3ccccc3C2)cc1OC`: the inhibition result is “inactive”.
Regarding `COc1ccc(CCN(C)c2c3ccccc3nc3ccccc23)cc1OC`, the inhibition entry is “inactive”.
Consider `COc1ccc(CCNc2cccc3ccccc23)cc1OC`, for which the inhibition entry was “inactive”.
`COc1ccc(CCNc2ccncc2)cc1OC`: the inhibition entry is “inactive”.
Regarding `COc1ccc(CCNc2c3ccccc3nc3ccccc23)cc1OC`, the inhibition entry was “inactive”.
